Experiments:
Vps34 = assay: in vitro inhibition of Vps34; format: biochemical
p110γ = p110γ (Homo sapiens, UniProt P48736); assay: in vitro inhibition of class I PI3K p110γ; format: biochemical
Sequence of p110γ (P48736 whole entry, species assumed): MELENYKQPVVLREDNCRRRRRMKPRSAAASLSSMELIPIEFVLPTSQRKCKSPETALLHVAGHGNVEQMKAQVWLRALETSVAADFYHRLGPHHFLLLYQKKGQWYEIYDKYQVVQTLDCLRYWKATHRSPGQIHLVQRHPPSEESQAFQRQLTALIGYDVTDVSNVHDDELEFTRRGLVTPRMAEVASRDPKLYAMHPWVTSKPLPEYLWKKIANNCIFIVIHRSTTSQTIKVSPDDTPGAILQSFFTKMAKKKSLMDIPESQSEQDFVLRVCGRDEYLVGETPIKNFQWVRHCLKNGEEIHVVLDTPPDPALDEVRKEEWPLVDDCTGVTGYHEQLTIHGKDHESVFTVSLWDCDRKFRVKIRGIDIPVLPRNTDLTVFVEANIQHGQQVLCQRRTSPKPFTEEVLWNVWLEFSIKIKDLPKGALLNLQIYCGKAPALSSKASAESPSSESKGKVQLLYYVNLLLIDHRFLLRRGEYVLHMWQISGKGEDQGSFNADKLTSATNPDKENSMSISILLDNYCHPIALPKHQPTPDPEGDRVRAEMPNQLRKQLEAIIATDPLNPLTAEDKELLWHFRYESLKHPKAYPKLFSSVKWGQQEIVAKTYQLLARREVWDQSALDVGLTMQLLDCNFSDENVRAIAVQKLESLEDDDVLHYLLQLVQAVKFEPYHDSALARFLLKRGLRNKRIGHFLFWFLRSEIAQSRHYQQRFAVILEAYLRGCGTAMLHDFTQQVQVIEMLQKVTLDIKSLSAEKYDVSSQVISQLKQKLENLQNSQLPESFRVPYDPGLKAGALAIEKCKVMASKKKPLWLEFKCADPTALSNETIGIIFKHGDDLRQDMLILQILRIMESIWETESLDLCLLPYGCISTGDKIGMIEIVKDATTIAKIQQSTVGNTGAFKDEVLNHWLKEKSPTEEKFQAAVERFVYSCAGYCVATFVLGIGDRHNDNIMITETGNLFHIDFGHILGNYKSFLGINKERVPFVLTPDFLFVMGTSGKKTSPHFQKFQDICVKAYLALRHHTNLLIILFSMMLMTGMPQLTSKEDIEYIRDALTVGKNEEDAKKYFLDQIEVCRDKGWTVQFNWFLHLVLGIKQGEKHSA

Cn1cnc(N)c2ncnc1-2 [3-MA, 3-methyladenine, reference compound]
specificity for Vps34 versus other PI3Ks (in words) (Vps34; in vitro assays, Fig. S8, Fig. 4G): preference for Vps34

CC(=O)Nc1nc(C)c(-c2ccc(Cl)c(S(=O)(=O)NCCO)c2)s1 [PIK-93, reference compound]
IC50 of PIK-93 relative to PIK-90 (in words) (Vps34; Fig. S8): lower IC50

COc1ccc(-c2sc(NC(C)=O)nc2C)cc1S(=O)(=O)NCCO [PT21]
change in IC50 relative to PIK-93 (in words) (Vps34; analogues of PIK-93, Fig. S9): little change in IC50
IC50 (Vps34; read-out: IC50 for Vps34, in vitro, Fig. S9): 88 nM
increase in IC50 for PI3Kγ (p110γ) compared to PIK93 (p110γ; ratio of IC50 values vs PIK93): > 10 fold
IC50 (p110γ; read-out: IC50 for the most potently inhibited Class I PI3K (p110γ), in vitro, Fig. S9): 61 nM

Reference: PMC2860105 (Science (New York, N.Y.), 2010)
